This note sets out measurements from ChEMBL document CHEMBL1201862, “PubChem BioAssay data set” (2004).

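Briefly, cells in 96-well plates were exposed to five compound concentrations for 48 h, and endpoints were estimated by linear interpolation. Abbreviation: GI50, concentration required for 50% inhibition of growth.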 The source made the active and inactive calls. Cut-off read from the data, not from the text of the source: active = GI50 up to about 1.1 µM and inactive = higher.

Assay in all cases: DTP human tumour cell line panel, 48 h
In experiment [1] the test system is BT-549.
Experiment [2] relates to SK-OV-3.
The subject of experiment [3] is A549.
The test system of experiment [4] is HCC 2998.
Experiment [5] concerns DU-145.
For experiment [6], the system named is SF-295.
In experiment [7] the test system is NCI/ADR-RES.
Experiment [8] relates to NCI-H23.
The test system of experiment [9] is UO-31.
The subject of experiment [10] is SK-MEL-5.
In experiment [11] the test system is K562.
The test system of experiment [12] is OVCAR-5.
Experiment [13] concerns EKVX.
The test system of experiment [14] is SNB-19.
Experiment [15] has as its system UACC-62.
For experiment [16], the system named is MDA-MB-435.
Experiment [17] concerns TK-10.
The test system of experiment [18] is RXF 393.
Experiment [19] has as its system SF-268.
In experiment [20] the test system is A498.

Turning to `CCN(CCC#N)C(=O)Nc1ccccc1`, the GI50 in experiment [1], in experiment [2], in experiment [3], in [4], in experiment [5] and in [6] was > 100 µM (inactive) in each case. In addition, the GI50 in experiment [7], in experiment [8], in experiment [9], in experiment [10], in [11] and in experiment [12] was > 100 µM (inactive) each time. In addition, the GI50 in [13], in [14], in experiment [15], in experiment [16], in [17] and in experiment [18] was > 100 µM (inactive) throughout.
Consider `c1ccc(CNCCCCNCCCNCc2ccccc2)cc1`, for which the GI50 (in general, the concentration giving 50% growth inhibition) is 16.3 µM (inactive) in experiment [1]; > 100 µM (inactive) in experiment [2]; 17.4 µM (inactive) in [3]; 16.9 µM (inactive) in experiment [4]; 23.6 µM (inactive) in experiment [5]; > 100 µM (inactive) in [6]. Moreover, the GI50 was > 100 µM (inactive) in experiment [7]; 22 µM (inactive) in experiment [8]; 21.5 µM (inactive) in [9]; 17.6 µM (inactive) in experiment [10]; 18.8 µM (inactive) in experiment [19]; 18 µM (inactive) in experiment [11]. The GI50 in experiment [12] was 30.2 µM (inactive); in experiment [13], 25.6 µM (inactive); in experiment [14], 16.4 µM (inactive); in experiment [15], 16.6 µM (inactive); in [16] it was 16.4 µM (inactive); in experiment [17] it was 19.8 µM (inactive). Further, in [18], the GI50 was 16.4 µM (inactive).
As to `Cc1ccc(S(=O)(=O)O)cc1.c1cc2c(c(NC3=NCCN3)c1)CCCC2`, the GI50 in experiment [1], in experiment [2], in [3], in experiment [5], in experiment [6] and in experiment [7] was > 100 µM (inactive) throughout. Besides, the GI50 in [8], in experiment [10], in experiment [19], in experiment [11], in [12] and in experiment [13] was > 100 µM (inactive) each time. Also, the GI50 in experiment [20], in experiment [14], in experiment [15], in experiment [16], in [17] and in experiment [18] was > 100 µM (inactive) throughout.
In the case of `O=C1c2cc(I)ccc2N2CCN=C2N1Cc1ccccc1`, the GI50 is 49.9 µM (inactive) in [1]; 47.4 µM (inactive) in experiment [2]; > 100 µM (inactive) in experiment [3]; > 100 µM (inactive) in experiment [5]; 73.1 µM (inactive) in experiment [6]; 70.8 µM (inactive) in experiment [7]. Moreover, the GI50 is > 100 µM (inactive) in experiment [8]; 57.4 µM (inactive) in [9]; > 100 µM (inactive) in experiment [10]; > 100 µM (inactive) in experiment [19]; > 100 µM (inactive) in experiment [11]; > 100 µM (inactive) in [12]. For the same molecule, the GI50 is 22.1 µM (inactive) in experiment [13]; 0.723 µM (active) in [20]; 63.8 µM (inactive) in experiment [14]; > 100 µM (inactive) in experiment [16]; > 100 µM (inactive) in experiment [17]; 23.7 µM (inactive) in experiment [18].
As for `COC(=O)c1c(-c2ccc(Cl)cc2)cc2c3ccccc3n(C)c2c1C(=O)OC`, the GI50 in experiment [1], in experiment [2], in [3], in experiment [5], in [6] and in experiment [7] was > 100 µM (inactive) each time. In addition, the GI50 in experiment [8] is > 100 µM (inactive); in [9], 2.47 µM (inactive); in experiment [10], > 100 µM (inactive); in experiment [19] it was > 100 µM (inactive); in experiment [11] it was 22.8 µM (inactive); in experiment [12], > 100 µM (inactive). The GI50 in [13], in [20], in experiment [14], in [15], in experiment [16] and in [17] was > 100 µM (inactive) each time.
Turning to `COc1cc(N2C(=O)C(=O)C3(CCCCC3)C2=O)cc(OC)c1OC`, the GI50 in [1], in [2], in [3], in experiment [4], in experiment [5] and in experiment [6] was > 100 µM (inactive) each time. Further, the GI50 in experiment [7] was > 100 µM (inactive); in [8], > 100 µM (inactive); in experiment [9], 73.3 µM (inactive); in experiment [10], > 100 µM (inactive); in [19] it was > 100 µM (inactive); in experiment [11], > 100 µM (inactive). In addition, the GI50 in experiment [12], in experiment [13], in experiment [14], in [15], in experiment [16] and in experiment [17] was > 100 µM (inactive) in each case. For the same molecule, the GI50 in [18] was > 100 µM (inactive).
Regarding `CC(=O)N1C(Nc2ccccn2)CCN1c1ccccc1` (configuration not stated), the GI50 in [1], in experiment [2], in experiment [3], in [4], in experiment [5] and in experiment [6] was > 10 µM (inactive) throughout. The GI50 in [7], in experiment [8], in [9], in experiment [10], in experiment [19] and in experiment [11] was > 10 µM (inactive) throughout. Besides, the GI50 in experiment [12], in experiment [13], in experiment [14], in experiment [16], in experiment [17] and in experiment [18] was > 10 µM (inactive) throughout.
For `O=C(O)c1ccccc1C(=O)Nn1cnnc1`, the GI50 in [1], in experiment [2], in [3], in [4], in experiment [5] and in experiment [6] was > 100 µM (inactive) each time. For the same molecule, the GI50 in experiment [7], in experiment [8], in experiment [9], in experiment [10], in [19] and in [11] was > 100 µM (inactive) throughout. Also, the GI50 in experiment [12], in experiment [13], in experiment [14], in [15], in experiment [16] and in [17] was > 100 µM (inactive) each time. For the same molecule, the GI50 in experiment [18] is > 100 µM (inactive).
